Measured values as given in US20080318943A1, “Compounds and Uses Thereof - 848” (ASTRAZENECA AB, priority 2007, published 2008).

Tests used:
GABAA receptor α1β2γ2 = molecular target: T1, GABAA receptor α1β2γ2 (Homo sapiens, UniProt P14867+P18507); assay: Two-electrode voltage-clamp potentiation of GABA EC10 current in Xenopus oocytes, GABAA1; assay type: cell-based; settings: percentage potentiation of GABA EC10 current divided by that of diazepam
T1 construct: expressed in transfected cells; host or cells: Xenopus laevis oocytes injected with cRNA
T1 sequence (P14867 28-456): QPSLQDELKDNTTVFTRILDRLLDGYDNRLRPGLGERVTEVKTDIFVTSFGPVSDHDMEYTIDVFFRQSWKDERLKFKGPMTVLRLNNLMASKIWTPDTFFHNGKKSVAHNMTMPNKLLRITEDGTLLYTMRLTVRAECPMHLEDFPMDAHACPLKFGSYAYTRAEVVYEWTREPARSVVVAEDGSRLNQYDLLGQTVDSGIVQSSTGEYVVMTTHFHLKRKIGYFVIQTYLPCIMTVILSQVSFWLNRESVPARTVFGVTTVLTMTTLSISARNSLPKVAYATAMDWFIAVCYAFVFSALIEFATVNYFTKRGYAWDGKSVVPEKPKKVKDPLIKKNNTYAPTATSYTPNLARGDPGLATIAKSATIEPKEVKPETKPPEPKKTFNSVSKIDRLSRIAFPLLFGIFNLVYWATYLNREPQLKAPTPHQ
T1 sequence (P47870 25-512 partner limits assumed): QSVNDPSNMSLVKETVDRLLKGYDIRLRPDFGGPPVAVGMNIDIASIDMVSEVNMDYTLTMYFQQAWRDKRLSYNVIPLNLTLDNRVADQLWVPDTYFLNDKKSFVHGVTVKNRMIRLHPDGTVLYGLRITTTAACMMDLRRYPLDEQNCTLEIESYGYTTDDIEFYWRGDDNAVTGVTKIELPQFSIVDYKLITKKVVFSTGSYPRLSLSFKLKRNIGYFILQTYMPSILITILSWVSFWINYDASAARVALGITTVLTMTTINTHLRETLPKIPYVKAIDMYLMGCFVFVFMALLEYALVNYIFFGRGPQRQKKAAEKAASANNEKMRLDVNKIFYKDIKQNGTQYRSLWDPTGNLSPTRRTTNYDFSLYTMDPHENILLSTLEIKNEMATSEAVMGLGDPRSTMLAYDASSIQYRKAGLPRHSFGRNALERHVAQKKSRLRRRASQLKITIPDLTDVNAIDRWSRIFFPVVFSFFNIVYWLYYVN
T1 sequence (P18507 40-475): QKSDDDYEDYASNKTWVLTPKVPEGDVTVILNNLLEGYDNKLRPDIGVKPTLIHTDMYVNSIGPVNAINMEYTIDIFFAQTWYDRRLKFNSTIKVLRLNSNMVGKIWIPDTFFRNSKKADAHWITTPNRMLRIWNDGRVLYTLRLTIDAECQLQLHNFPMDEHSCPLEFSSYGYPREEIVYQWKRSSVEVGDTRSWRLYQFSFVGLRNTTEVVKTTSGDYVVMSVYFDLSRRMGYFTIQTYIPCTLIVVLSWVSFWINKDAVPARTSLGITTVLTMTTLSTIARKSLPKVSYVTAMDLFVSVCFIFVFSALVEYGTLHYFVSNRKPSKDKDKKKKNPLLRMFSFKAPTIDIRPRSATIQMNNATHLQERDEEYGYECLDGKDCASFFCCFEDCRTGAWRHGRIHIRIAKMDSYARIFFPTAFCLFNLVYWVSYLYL
Outline: (§1)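 Human GABAA receptors expressed in Xenopus oocytes by cRNA injection (α:β:γ molar ratio ~1:1:10 for α1β2γ2, 1:1:1 for α2β3γ2), recorded 2-10 days later by two-electrode voltage clamp at −60 mV in ND-96, pH 7.5. Modulator preapplied 30 s before GABA at per-oocyte EC10. Peak-current percent potentiation over GABA alone, normalised to diazepam.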

GABAA receptor α2β3γ2 = molecular target: T2, GABAA receptor α2β3γ2 (Homo sapiens, UniProt P18507+P47869); assay: Two-electrode voltage-clamp potentiation of GABA EC10 current in Xenopus oocytes, GABAA2; assay type: cell-based; settings: percentage potentiation of GABA EC10 current divided by that of diazepam
T2 construct: expressed in transfected cells; host or cells: Xenopus laevis oocytes injected with cRNA
T2 sequence (P47869 29-451): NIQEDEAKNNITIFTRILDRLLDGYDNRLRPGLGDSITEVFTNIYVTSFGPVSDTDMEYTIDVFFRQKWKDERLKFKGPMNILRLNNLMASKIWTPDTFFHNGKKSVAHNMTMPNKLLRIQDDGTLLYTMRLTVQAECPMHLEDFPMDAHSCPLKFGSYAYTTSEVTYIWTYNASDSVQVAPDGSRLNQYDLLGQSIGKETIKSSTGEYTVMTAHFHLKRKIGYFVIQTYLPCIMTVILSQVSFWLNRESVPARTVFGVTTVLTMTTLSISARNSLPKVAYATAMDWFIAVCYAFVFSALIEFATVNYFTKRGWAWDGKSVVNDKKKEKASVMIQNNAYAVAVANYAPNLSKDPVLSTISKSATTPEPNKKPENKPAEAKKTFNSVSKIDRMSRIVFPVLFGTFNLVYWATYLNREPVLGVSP
T2 sequence (P28472 26-473 partner): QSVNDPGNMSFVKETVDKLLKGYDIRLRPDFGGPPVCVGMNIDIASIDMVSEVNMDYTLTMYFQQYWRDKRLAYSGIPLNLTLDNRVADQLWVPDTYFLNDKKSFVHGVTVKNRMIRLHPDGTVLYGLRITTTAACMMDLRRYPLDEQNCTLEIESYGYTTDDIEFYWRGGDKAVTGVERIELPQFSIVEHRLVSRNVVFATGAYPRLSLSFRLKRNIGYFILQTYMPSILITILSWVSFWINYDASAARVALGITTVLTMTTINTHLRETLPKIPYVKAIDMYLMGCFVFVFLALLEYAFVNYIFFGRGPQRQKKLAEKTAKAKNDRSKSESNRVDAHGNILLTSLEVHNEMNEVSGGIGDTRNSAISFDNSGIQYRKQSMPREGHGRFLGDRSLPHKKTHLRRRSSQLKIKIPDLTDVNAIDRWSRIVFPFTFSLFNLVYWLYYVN
T2 sequence (P18507 40-475): as the sequence (P18507 40-475) above
Outline: as §1

[1] = molecular target: T3, GABAA2 receptors (α2, β3, γ2 receptor subunits transfected into Sf9 cells) (Homo sapiens, UniProt P18507+P47869); assay: GABAA2 Binding Method ([3H]-Flunitrazepam displacement); settings: [3H]-Flunitrazepam ~2 nM, α2β3γ2 Sf9 membranes, 1 hr at 4° C.
T3 construct: host or cells: Sf9 cells (membranes)
T3 sequence (P47869 29-451): as the sequence (P47869 29-451) above
T3 sequence (P28472 26-473 partner): as the sequence (P28472 26-473 partner) above
T3 sequence (P18507 40-475): as the sequence (P18507 40-475) above
Outline: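 Displacement of [3H]-flunitrazepam (~2 nM in assay) from recombinant human α2β3γ2 receptors in Sf9 membranes; 1 h incubation at 4 °C, harvest by filtration. Values reported as percent of control, IC50 and Ki.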

Structure (SMILES)	Relative Potentiation for GABAA1 (GABAA receptor α1β2γ2)	Relative Potentiation for GABAA2 (GABAA receptor α2β3γ2)	Ki [1] [nM]
CCCN1Cc2nc3c(-c4cc(C)cnc4OC)cccc3c(N)c2C1=O [9-amino-5-(2-methoxy-5-methylpyridin-3-yl)-2-propyl-2,3-dihydro-1H-pyrrolo[3,4-b]quinolin-1-one]	0.58	0	3.59
Cc1ccc(-c2cccc3c(N)c4c(nc23)CN(C2CCC2)C4=O)cn1 [9-Amino-2-cyclobutyl-5-(6-methylpyridin-3-yl)-2,3-dihydropyrrolo[3,4-b]quinolin-1-one]	−0.13	0.21	4.44
CCN1Cc2nc3c(-c4ccc(OC)cc4OC)c(F)ccc3c(N)c2C1=O [9-Amino-5-(2,4-dimethoxy-phenyl)-2-ethyl-6-fluoro-2,3-dihydropyrrolo[3,4-b]quinolin-1-one]	0.072	0.11	4.84
CCCN1Cc2nc3c(-c4ccccc4C#N)cccc3c(N)c2C1=O [2-(9-amino-1-oxo-2-propyl-2,3-dihydro-1H-pyrrolo[3,4-b]quinolin-5-yl)benzonitrile]	0.15	0.21	30.7
COc1cccc(-c2cccc3c(N)c4c(nc23)CN(C2CCC2)C4=O)n1 [9-Amino-2-cyclobutyl-5-(6-methoxypyridin-2-yl)-2,3-dihydropyrrolo[3,4-b]quinolin-1-one]	0.085	0.16	1.48
COc1cc(F)c(-c2cccc3c(N)c4c(nc23)CN(C2CC2)C4=O)c(F)c1 [9-Amino-2-cyclopropyl-5-(2,6-difluoro-4-methoxyphenyl)-2,3-dihydropyrrolo[3,4-b]quinolin-1-one]	−0.02	0.088	8.14
COc1ccc(-c2cccc3c(N)c4c(nc23)CN([C@H]2C[C@@H](C)C2)C4=O)c(C)n1	0.14	0.3	4.65
Nc1c2c(nc3c(-c4ccncc4)cccc13)CN(C1CCC1)C2=O [9-Amino-2-cyclobutyl-5-pyridin-4-yl-2,3-dihydropyrrolo[3,4-b]quinolin-1-one]	0.079	0.17	1.35
CCN1Cc2nc3c(-c4ccc(OC)c(F)c4)cccc3c(N)c2C1=O [9-amino-2-ethyl-5-(3-fluoro-4-methoxyphenyl)-2,3-dihydro-1H-pyrrolo[3,4-b]quinolin-1-one]	0.012	0.065	42.5
CCN1Cc2nc3c(-c4c(F)cc(OC)cc4F)c(F)ccc3c(N)c2C1=O [9-amino-5-(2,6-difluoro-4-methoxyphenyl)-2-ethyl-6-fluoro-2,3-dihydro-1H-pyrrolo[3,4-b]quinolin-1-one]	−0.09	−0.02	4.5
Nc1c2c(nc3c(-c4ccccn4)cccc13)CN(C1CCC1)C2=O [9-Amino-2-cyclobutyl-5-pyridin-2-yl-2,3-dihydropyrrolo[3,4-b]quinolin-1-one]	0.061	0.12	4.66
COc1ncccc1-c1c(F)ccc2c(N)c3c(nc12)CN(C1CCC1)C3=O [9-Amino-2-cyclobutyl-6-fluoro-5-(2-methoxypyridin-3-yl)-2,3-dihydropyrrolo[3,4-b]quinolin-1-one]	−0.01	0.28	0.847
COc1ccc(-c2c(F)ccc3c(N)c4c(nc23)CN(C2CCC2)C4=O)cc1OC [9-Amino-2-cyclobutyl-5-(3,4-dimethoxyphenyl)-6-fluoro-2,3-dihydropyrrolo[3,4-b]quinolin-1-one]	0.083	0.41	1
COc1cccc(F)c1-c1cccc2c(N)c3c(nc12)CN(C1CC1)C3=O (atropisomer, axis not shown; (P))	−0.018	0.38	3.63
COc1ccc(CN2Cc3nc4c(-c5cccnc5OC)cccc4c(N)c3C2=O)cc1 [Example 3, 9-Amino-2-(4-methoxybenzyl)-5-(2-methoxypyridin-3-yl)-2,3-dihydropyrrolo[3,4-b]quinolin-1-one]	0.12	0.68	22
CCN1Cc2nc3c(-c4ccccc4OC)c(F)ccc3c(N)c2C1=O [Example 45, 9-Amino-2-ethyl-6-fluoro-5-(2-methoxyphenyl)-2,3-dihydropyrrolo[3,4-b]quinolin-1-one]	−0.11	0.26	13.2
COc1ccc(F)c(-c2c(F)ccc3c(N)c4c(nc23)CN(C2CCC2)C4=O)c1 [9-Amino-2-cyclobutyl-6-fluoro-5-(2-fluoro-5-methoxyphenyl)-2,3-dihydropyrrolo[3,4-b]quinolin-1-one]	0.025	0.26	0.333
COc1ccncc1-c1cccc2c(N)c3c(nc12)CN(C1CCC1)C3=O [Example 62, 9-Amino-2-cyclobutyl-5-(4-methoxypyridin-3-yl)-2,3-dihydropyrrolo[3,4-b]quinolin-1-one]	0.09	0.44	1.84
COc1cccc(-c2cccc3c(N)c4c(nc23)CN(C)C4=O)c1F [9-Amino-5-(2-fluoro-3-methoxyphenyl)-2-methyl-2,3-dihydropyrrolo[3,4-b]quinolin-1-one]	0.09	0.11	32.5
CCN1Cc2nc3c(-c4cccnc4OC)cccc3c(N)c2C1=O [Example 19, 9-Amino-2-ethyl-5-(2-methoxypyridin-3-yl)-2,3-dihydropyrrolo[3,4-b]quinolin-1-one]	0.022	0.28	24.2
CCN1Cc2nc3c(-c4ccc(OC)nc4OC)c(F)ccc3c(N)c2C1=O [Example 26, 9-Amino-5-(2,6-dimethoxypyridin-3-yl)-2-ethyl-6-fluoro-2,3-dihydropyrrolo[3,4-b]quinolin-1-one]	0.062	0.18	8.96
COc1ccc(F)c(-c2cccc3c(N)c4c(nc23)CN(C2CC2)C4=O)c1 [Example 60, 9-Amino-2-cyclopropyl-5-(2-fluoro-5-methoxyphenyl)-2,3-dihydropyrrolo[3,4-b]quinolin-1-one]	0.079	0.33	13.8
Cc1ccc(-c2c(F)ccc3c(N)c4c(nc23)CN(C2CCC2)C4=O)cn1 [9-Amino-2-cyclobutyl-6-fluoro-5-(6-methylpyridin-3-yl)-2,3-dihydropyrrolo[3,4-b]quinolin-1-one]	0	0.15	0.305
COc1ccc(-c2cccc3c(N)c4c(nc23)CN(C2CC2)C4=O)c(F)c1 [Example 115, 9-Amino-2-cyclopropyl-5-(2-fluoro-4-methoxyphenyl)-2,3-dihydropyrrolo[3,4-b]quinolin-1-one]	−0.05	0.12	14.5
COc1ccc(OC)c(CN2Cc3nc4c(-c5cccnc5OC)cccc4c(N)c3C2=O)c1 [Example 4, 9-Amino-2-(2,5-dimethoxybenzyl)-5-(2-methoxypyridin-3-yl)-2,3-dihydropyrrolo[3,4-b]quinolin-1-one]	0.013	0.18	31.2
COc1ncc(-c2cccc3c(N)c4c(nc23)CN(Cc2ccc(OC)c(OC)c2)C4=O)c(OC)n1 [9-amino-2-(3,4-dimethoxybenzyl)-5-(2,4-dimethoxypyrimidin-5-yl)-2,3-dihydro-1H-pyrrolo[3,4-b]quinolin-1-one]	0.19	0.42	13.5
CCN1Cc2nc3c(-c4ccccc4F)c(F)ccc3c(N)c2C1=O [9-amino-2-ethyl-6-fluoro-5-(2-fluorophenyl)-2,3-dihydro-1H-pyrrolo[3,4-b]quinolin-1-one]	−0.04	0.038	1.51
CCN1Cc2nc3c(-c4ccc(F)cc4OC)cccc3c(N)c2C1=O [Example 32, 9-Amino-2-ethyl-5-(4-fluoro-2-methoxyphenyl)-2,3-dihydropyrrolo[3,4-b]quinolin-1-one]	−0.05	0.2	22.1
Nc1c2c(nc3c(-c4ccc(N5CCOCC5)nc4)cccc13)CN(C1CCC1)C2=O [9-Amino-2-cyclobutyl-5-(6-morpholin-4-yl-pyridin-3-yl)-2,3-dihydropyrrolo[3,4-b]quinolin-1-one]	−0.025	0.12	8.81
CCN1Cc2nc3c(-c4cnccc4OC)cccc3c(N)c2C1=O [Example 57, 9-Amino-2-ethyl-5-(4-methoxypyridin-3-yl)-2,3-dihydropyrrolo[3,4-b]quinolin-1-one]	0.079	0.26	21.4
